Data published in ChEMBL document CHEMBL1123051, “In the search for new anticancer drugs. 13. Phosphonic and phosphinic analogues of ornithine” (1985).
Activity calls are given as the source filed them. The rule behind the calls is not given here.

Columns and labels:
Mus musculus [1] = assay: Compound was tested against P388 Leukemia cells in mouse at the dose of 150 mg/kg ip, activity expressed as T/C; assay type: functional
[2] = molecular target: T1, Ornithine decarboxylase (Rattus norvegicus) (UniProt P09057); assay: Compound was tested for its inhibition against ornithine decarboxylase from rat liver at low concentration; NA means not active
T1 sequence (whole entry): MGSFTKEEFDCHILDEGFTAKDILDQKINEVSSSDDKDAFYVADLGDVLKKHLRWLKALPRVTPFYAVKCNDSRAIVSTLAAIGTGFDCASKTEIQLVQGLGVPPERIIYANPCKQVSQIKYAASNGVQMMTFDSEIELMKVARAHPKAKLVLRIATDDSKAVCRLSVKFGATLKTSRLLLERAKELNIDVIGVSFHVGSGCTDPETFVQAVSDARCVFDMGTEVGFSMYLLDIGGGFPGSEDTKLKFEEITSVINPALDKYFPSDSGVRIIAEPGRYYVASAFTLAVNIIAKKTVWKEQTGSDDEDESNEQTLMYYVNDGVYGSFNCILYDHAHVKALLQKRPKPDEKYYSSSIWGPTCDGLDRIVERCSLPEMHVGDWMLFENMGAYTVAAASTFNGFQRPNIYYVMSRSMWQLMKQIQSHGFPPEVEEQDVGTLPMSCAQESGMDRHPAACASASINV

Mus musculus [3] = assay: Compound was tested against P388 Leukemia cells in mouse at the dose of 50 mg/kg ip, activity expressed as T/C; assay type: functional

## CCP(=O)(O)C(C)(N)CCCN.Cl (stereo unspecified)
Mus musculus [1]
  T/C: 98
[2]
  Activity: inactive
Mus musculus [3]
  T/C: 98

## CCP(=O)(O)C(N)CCCN.Cl (stereo unspecified)
Mus musculus [1]
  T/C: 100
[2]
  Activity: inactive
Mus musculus [3]
  T/C: 100
